ChEMBL document CHEMBL4706735, “Novel Pyrazolo[3,4-b]pyrazines as SHP2 Inhibitors for Treating Cancer” (ACS Med Chem Lett, 2021)

Assay: Inhibition of ERK phosphorylation in human HCC827 cells incubated for 30 mins in serum free medium measured by sandwich ELISA
Type: cell-based
Settings: HCC827, 0.5 h

Structure (SMILES)	IC50 [nM]
C[C@@H]1OCC2(CCN(c3nc4[nH]nc(-c5ccc6nn(C)c(Cl)c6c5Cl)c4nc3CO)CC2)[C@@H]1N	3.6
COc1cnc2ccc(-c3n[nH]c4nc(N5CCC6(CC5)CO[C@@H](C)[C@H]6N)c(CO)nc34)c(Cl)c2n1	8.4
Cn1nc2ccc(-c3n[nH]c4nc(N5CCC6(CC5)CC(F)(F)C[C@H]6N)c(CO)nc34)c(Cl)c2c1Cl	6.2
C[C@@H]1OCC2(CCN(c3nc4[nH]nc(-c5cccc(Cl)c5F)c4nc3CO)CC2)[C@@H]1N	5.6
Cn1nc2ccc(-c3n[nH]c4nc(N5CCC6(CC5)C[C@H](F)C[C@H]6N)c(CO)nc34)c(Cl)c2c1Cl	4.1
Cn1cc2c(Cl)c(-c3n[nH]c4nc(N5CCC6(CC5)CC(F)(F)C[C@H]6N)c(CO)nc34)ccc2n1	6.3
